Like-named read-outs stand apart in the source and are kept apart here.
Assays:
[1] = Log P by HPLC on reversed phase columns, method [a] (EEC directive 79/831 Annex V.A8); assay type: physicochemical; conditions: reversed phase HPLC column
Method in brief: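 Log P calibrated with C3–C16 straight-chain alkan-2-ones of known Log P, interpolating linearly between retention times. Method per EEC 79/831 Annex V.A8: reversed-phase LC-UV in the acidic range, water/0.1% formic acid and acetonitrile gradient from 10% to 95% acetonitrile.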

Phakosporra pachirrhizi = test: Example A: fungicidal activity, spore germination in 96-well plates; assay type: cell-based; conditions: 4 hours at 21° C., read-out: efficacy (inhibition of the fungal germination); for inhibition at 20 ppm: 20 ppm of active ingredient; for inhibition at 30 ppm: 30 ppm of active ingredient
Description: Cryo-conserved wild-type spores of the biotroph Phakosporra pachirrhizi were humidified in dedicated chamber overnight at 18° C. in the dark. The next day, a solution of spores at 7×10^3 sp/mL was prepared in a water based growth medium (H2O+0.2 mM MOPS at pH 7+0.01% Tween 20) and spores were distributed in a 96-MTPS (final volume of 200 μL per well) thanks to a dispenser robot. Each molecule was tested at 10 doses (from 30 to 0.002 ppm final concentration) and accordingly 1.2 μL of each dilution was transferred in dedicated well to end-up with a final concentration of 0.6% DMSO. Wild-type spores and molecules were incubated for 4 hours at 21° C., and 6 images par well were then acquired with Transmitted Light images (Image Xpress Micro microscope, Molecular Devices, Objective 10×, 6 images per well). Detection and quantification of the number of germinated spores per image was performed with a dedicated in-house developed algorithm (MetaXpress software, Molecular Devices).

[2] = test system: Colletotrichum lindemuthianum; test: Example B: in vitro cell test, spore germination and mycelium growth in liquid culture; assay type: cell-based; conditions: 144 h, 20 ppm of tested compound, 6 days incubation, read-out: efficacy (inhibition of fungal growth)
Method in brief: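 Compounds in DMSO (final ≤1%) added to glucose/peptone/yeast extract liquid medium containing C. lindemuthianum spores. After 6 days incubation, mycelium growth measured spectrometrically; inhibition calculated from absorbance versus compound-free control wells.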

Puccinia recondita = test: Example D: in vivo preventive test (brown rust on wheat); conditions: 264 h, 500 ppm of tested compound, preventive spray, evaluated 11 days after inoculation, read-out: efficacy
Description: Solvent: 5% by volume of dimethyl sulfoxide • 10% by volume of acetone Emulsifier: 1 μL of Tween® 80 per mg of active ingredient The tested compounds were made soluble and homogenized in a mixture of dimethyl sulfoxide/acetone/Tween® 80 and then diluted in water to the desired concentration. The young plants of wheat were treated by spraying the tested compound prepared as described above. Control plants were treated only with an aqueous solution of acetone/dimethyl sulfoxide/Tween® 80. After 24 hours, the plants were contaminated by spraying the leaves with an aqueous suspension of Puccinia recondita spores. The contaminated wheat plants were incubated for 24 hours at 20° C. and at 100% relative humidity and then for 10 days at 20° C. and at 70-80% relative humidity. The test was evaluated 11 days after the inoculation. 0% means an efficacy which corresponds to that of the control plants while an efficacy of 100% means that no disease was observed.

Phakopsora pachyrhizi = test: Example F: in vivo preventive test (soybeans), DMSO/acetone/Tween 80; conditions: 288 h, 500 ppm of tested compound, preventive spray, soybean, evaluated 12 days after inoculation, read-out: efficacy
Method in brief: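 Compounds in DMSO/acetone/Tween 80, diluted in water, were sprayed preventively onto young plants, which were spore-inoculated 24 h later. Plants were held 24 h at 24 °C and 100% RH, then 11 days at 24 °C and 70–80% RH. Scored 12 days post-inoculation: 0% = control-level disease, 100% = no disease.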

[3] = log P determined according to method [a] (HPLC on reversed phase columns), read-out: logP
[4] = Method A: LC-UV, acidic range, 0.1% formic acid in water and acetonitrile, read-out: Log P

Compound | chromatographic logP [1, 3] | inhibition at 20 ppm (Phakosporra pachirrhizi) [%] | inhibition of growth at 20 µg/mL [2] [%] | pest or weed control at 500 µg/mL (Puccinia recondita) [%] | pest or weed control at 500 µg/mL (Phakopsora pachyrhizi) [%] | chromatographic logP [1, 4] | inhibition at 30 ppm (Phakosporra pachirrhizi) [%] | inhibition at 4 ppm (Phakosporra pachirrhizi; 4 ppm of active ingredient) [%]
Fc1ccccc1C1(Nc2ncc(-c3nnc(C(F)F)o3)cn2)CC1 [I.144, 5-[5-(difluoromethyl)-1,3,4-oxadiazol-2-yl]-N-[1-(2-fluorophenyl)cyclopropyl]pyrimidin-2-amine] | 2.85 | ≥ 70 | 90 to 100 | 90 to 100 | 90 to 100 | – | – | –
FC(F)c1nnc(-c2cnc(NC3(c4ccccc4)CCC3)nc2)o1 [I.134, 5-[5-(difluoromethyl)-1,3,4-oxadiazol-2-yl]-N-(1-phenylcyclobutyl)pyrimidin-2-amine] | – | ≥ 70 | 90 to 100 | 70 to 79 | 90 to 100 | 3.18 | – | –
FC(F)(F)c1nnc(-c2cnc(NC3(c4ccccc4)CCC3)nc2)o1 [I.160, N-(1-phenylcyclobutyl)-5-[5-(trifluoromethyl)-1,3,4-oxadiazol-2-yl]pyrimidin-2-amine] | 3.84 | ≥ 70 | 80 to 89 | – | 90 to 100 | – | – | –
CCc1noc(-c2ccc(-c3nnc(C(F)(F)F)o3)cc2)n1 [I.018, 3-ethyl-5-{4-[5-(trifluoromethyl)-1,3,4-oxadiazol-2-yl]phenyl}-1,2,4-oxadiazole] | – | – | – | – | – | 3.59 | ≥ 70 | –
O=C(O)c1ccc(-c2nnc(C(F)(F)F)s2)cc1 [I.008, 4-[5-(trifluoromethyl)-1,3,4-thiadiazol-2-yl]benzoic acid] | – | ≥ 70 | – | – | – | 1.41 | – | –
O=C(Nc1ccc(F)cc1F)c1ccc(-c2nnc(C(F)F)o2)cc1 [I.027, 4-[5-(difluoromethyl)-1,3,4-oxadiazol-2-yl]-N-(2,4-difluorophenyl)benzamide] | – | – | – | – | – | – | – | ≥ 70
O=C(O)c1ccc(-c2nnc(C(F)(F)F)o2)cc1 [I.004, 4-[5-(trifluoromethyl)-1,3,4-oxadiazol-2-yl]benzoic acid] | – | – | – | – | – | – | ≥ 70 | –
